{
  "source": "patent US9174973B2",
  "about": "“Crystalline forms of azilsartan and preparation and uses thereof” (SUNSHINE LAKE PHARMA CO., LTD., priority 2011, dated 2015)",
  "key": {"[1]": {"assay": "Humidity Stability of crystalline form A", "format": "physicochemical", "conditions": "25° C., RH 90%+/−5%", "protocol": "A layer of crystalline form A having a thickness of less than 5 mm was place in a flat weighing bottle. […] The conditions for the HPLC measurements are as shown below. • Instrument: Agilent 1200HPLC • Column: Agilent Eclipse XDB-C18 4.6*150 mm, 5 μm • Detection wavelength: 254 nm • Mobile phase: A phase 10 mM ammonium acetate (pH=3.5) and B phase acetonitrile [table]"}, "[2]": {"assay": "Light Stability of crystalline form A", "format": "physicochemical", "conditions": "light 4500+/−500 Lux", "protocol": "A layer of crystalline form A having a thickness of less than 5 mm was place in a flat weighing bottle. […] Samples were taken out at 6 days, 11 days and 16 days and examined for purity by HPLC, appearance and crystalline form. The conditions for the HPLC measurements are as shown below. • Instrument: Agilent 1200HPLC • Column: Agilent Eclipse XDB-C18 4.6*150 mm, 5 μm • Detection wavelength: 254 nm • Mobile phase: A phase 10 mM ammonium acetate (pH=3.5) and B phase acetonitrile [table]"}},
  "data": [
    {"smiles": "CCOc1nc2cccc(C(=O)O)c2n1Cc1ccc(-c2ccccc2-c2noc(=O)[nH]2)cc1", "note": "[Form A]", "values": [
      {"measurement": "RT* (min.) 30.66 (HPLC peak)", "setting": "[1]; 6 days", "result": 0.03, "unit": "%"},
      {"measurement": "Appearance", "setting": "[1]; 11 days", "result": "White or off-"},
      {"measurement": "Crystalline form", "setting": "[1]; 11 days", "result": "Form A"},
      {"measurement": "RT* (min.) 2.39 (HPLC peak)", "setting": "[1]; 11 days", "result": "— (“—” refers to the peak area is less than 3000 or there is no peak)"},
      {"measurement": "RT* (min.) 2.89 (HPLC peak)", "setting": "[1]; 11 days", "result": 0.02, "unit": "%"},
      {"measurement": "RT* (min.) 3.9 (HPLC peak)", "setting": "[1]; 11 days", "result": 0.33, "unit": "%"},
      {"measurement": "RT* (min.) 5.79 (HPLC peak)", "setting": "[1]; 11 days", "result": "— (“—” refers to the peak area is less than 3000 or there is no peak)"},
      {"measurement": "RT* (min.) 13.2 (azilsartan peak, purity by HPLC)", "setting": "[1]; 11 days", "result": 99.51, "unit": "%"},
      {"measurement": "RT* (min.) 20.55 (HPLC peak)", "setting": "[1]; 11 days", "result": "— (“—” refers to the peak area is less than 3000 or there is no peak)"},
      {"measurement": "RT* (min.) 22.8 (HPLC peak)", "setting": "[1]; 11 days", "result": 0.04, "unit": "%"},
      {"measurement": "RT* (min.) 23.6 (HPLC peak)", "setting": "[1]; 11 days", "result": 0.02, "unit": "%"},
      {"measurement": "RT* (min.) 26.96 (HPLC peak)", "setting": "[1]; 11 days", "result": "— (“—” refers to the peak area is less than 3000 or there is no peak)"},
      {"measurement": "RT* (min.) 27.5 (HPLC peak)", "setting": "[1]; 11 days", "result": 0.06, "unit": "%"},
      {"measurement": "RT* (min.) 28.81 (HPLC peak)", "setting": "[1]; 11 days", "result": "— (“—” refers to the peak area is less than 3000 or there is no peak)"},
      {"measurement": "RT* (min.) 30.66 (HPLC peak)", "setting": "[1]; 11 days", "result": 0.03, "unit": "%"},
      {"measurement": "Appearance", "setting": "[1]; 16 days", "result": "White or off-"},
      {"measurement": "Crystalline form", "setting": "[1]; 16 days", "result": "Form A"},
      {"measurement": "RT* (min.) 2.39 (HPLC peak)", "setting": "[1]; 16 days", "result": "— (“—” refers to the peak area is less than 3000 or there is no peak)"},
      {"measurement": "RT* (min.) 2.89 (HPLC peak)", "setting": "[1]; 16 days", "result": 0.01, "unit": "%"},
      {"measurement": "RT* (min.) 3.9 (HPLC peak)", "setting": "[1]; 16 days", "result": 0.32, "unit": "%"},
      {"measurement": "RT* (min.) 5.79 (HPLC peak)", "setting": "[1]; 16 days", "result": "— (“—” refers to the peak area is less than 3000 or there is no peak)"},
      {"measurement": "RT* (min.) 13.2 (azilsartan peak, purity by HPLC)", "setting": "[1]; 16 days", "result": 99.52, "unit": "%"},
      {"measurement": "RT* (min.) 20.55 (HPLC peak)", "setting": "[1]; 16 days", "result": "— (“—” refers to the peak area is less than 3000 or there is no peak)"},
      {"measurement": "RT* (min.) 22.8 (HPLC peak)", "setting": "[1]; 16 days", "result": 0.04, "unit": "%"},
      {"measurement": "RT* (min.) 23.6 (HPLC peak)", "setting": "[1]; 16 days", "result": 0.01, "unit": "%"},
      {"measurement": "RT* (min.) 26.96 (HPLC peak)", "setting": "[1]; 16 days", "result": "— (“—” refers to the peak area is less than 3000 or there is no peak)"},
      {"measurement": "RT* (min.) 27.5 (HPLC peak)", "setting": "[1]; 16 days", "result": 0.05, "unit": "%"},
      {"measurement": "RT* (min.) 28.81 (HPLC peak)", "setting": "[1]; 16 days", "result": "— (“—” refers to the peak area is less than 3000 or there is no peak)"},
      {"measurement": "RT* (min.) 30.66 (HPLC peak)", "setting": "[1]; 16 days", "result": 0.02, "unit": "%"},
      {"measurement": "Appearance", "setting": "[2]; 6 days", "result": "Light yellow"},
      {"measurement": "Crystalline form", "setting": "[2]; 6 days", "result": "Form A"},
      {"measurement": "RT* (min.) 2.39 (HPLC peak)", "setting": "[2]; 6 days", "result": 0.01, "unit": "%"},
      {"measurement": "RT* (min.) 2.89 (HPLC peak)", "setting": "[2]; 6 days", "result": 0.09, "unit": "%"},
      {"measurement": "RT* (min.) 3.9 (HPLC peak)", "setting": "[2]; 6 days", "result": 0.32, "unit": "%"},
      {"measurement": "RT* (min.) 5.79 (HPLC peak)", "setting": "[2]; 6 days", "result": "— (“—” refers to the peak area is less than 3000 or there is no peak)"},
      {"measurement": "RT* (min.) 13.2 (azilsartan peak, purity by HPLC)", "setting": "[2]; 6 days", "result": 99.45, "unit": "%"},
      {"measurement": "RT* (min.) 20.55 (HPLC peak)", "setting": "[2]; 6 days", "result": "— (“—” refers to the peak area is less than 3000 or there is no peak)"},
      {"measurement": "RT* (min.) 22.8 (HPLC peak)", "setting": "[2]; 6 days", "result": 0.04, "unit": "%"},
      {"measurement": "RT* (min.) 23.6 (HPLC peak)", "setting": "[2]; 6 days", "result": 0.01, "unit": "%"},
      {"measurement": "RT* (min.) 26.96 (HPLC peak)", "setting": "[2]; 6 days", "result": "— (“—” refers to the peak area is less than 3000 or there is no peak)"},
      {"measurement": "RT* (min.) 27.5 (HPLC peak)", "setting": "[2]; 6 days", "result": 0.06, "unit": "%"},
      {"measurement": "RT* (min.) 28.81 (HPLC peak)", "setting": "[2]; 6 days", "result": "— (“—” refers to the peak area is less than 3000 or there is no peak)"},
      {"measurement": "RT* (min.) 30.66 (HPLC peak)", "setting": "[2]; 6 days", "result": 0.02, "unit": "%"},
      {"measurement": "Appearance", "setting": "[2]; 11 days", "result": "Light yellow"},
      {"measurement": "Crystalline form", "setting": "[2]; 11 days", "result": "Form A"},
      {"measurement": "RT* (min.) 2.39 (HPLC peak)", "setting": "[2]; 11 days", "result": 0.04, "unit": "%"},
      {"measurement": "RT* (min.) 2.89 (HPLC peak)", "setting": "[2]; 11 days", "result": 0.14, "unit": "%"},
      {"measurement": "RT* (min.) 3.9 (HPLC peak)", "setting": "[2]; 11 days", "result": 0.61, "unit": "%"},
      {"measurement": "RT* (min.) 5.79 (HPLC peak)", "setting": "[2]; 11 days", "result": 0.02},
      {"measurement": "RT* (min.) 13.2 (azilsartan peak, purity by HPLC)", "setting": "[2]; 11 days", "result": 98.71, "unit": "%"},
      {"measurement": "RT* (min.) 20.55 (HPLC peak)", "setting": "[2]; 11 days", "result": 0.07, "unit": "%"},
      {"measurement": "RT* (min.) 22.8 (HPLC peak)", "setting": "[2]; 11 days", "result": 0.06, "unit": "%"},
      {"measurement": "RT* (min.) 23.6 (HPLC peak)", "setting": "[2]; 11 days", "result": 0.03, "unit": "%"},
      {"measurement": "RT* (min.) 26.96 (HPLC peak)", "setting": "[2]; 11 days", "result": 0.01, "unit": "%"},
      {"measurement": "RT* (min.) 27.5 (HPLC peak)", "setting": "[2]; 11 days", "result": 0.29, "unit": "%"},
      {"measurement": "RT* (min.) 28.81 (HPLC peak)", "setting": "[2]; 11 days", "result": 0.01, "unit": "%"},
      {"measurement": "RT* (min.) 30.66 (HPLC peak)", "setting": "[2]; 11 days", "result": 0.03, "unit": "%"},
      {"measurement": "Appearance", "setting": "[2]; 16 days", "result": "Light yellow"},
      {"measurement": "Crystalline form", "setting": "[2]; 16 days", "result": "Form A"},
      {"measurement": "RT* (min.) 2.39 (HPLC peak)", "setting": "[2]; 16 days", "result": 0.05, "unit": "%"},
      {"measurement": "RT* (min.) 2.89 (HPLC peak)", "setting": "[2]; 16 days", "result": 0.22, "unit": "%"},
      {"measurement": "RT* (min.) 3.9 (HPLC peak)", "setting": "[2]; 16 days", "result": 0.34, "unit": "%"},
      {"measurement": "RT* (min.) 5.79 (HPLC peak)", "setting": "[2]; 16 days", "result": "— (“—” refers to the peak area is less than 3000 or there is no peak)"},
      {"measurement": "RT* (min.) 13.2 (azilsartan peak, purity by HPLC)", "setting": "[2]; 16 days", "result": 99.24, "unit": "%"},
      {"measurement": "RT* (min.) 20.55 (HPLC peak)", "setting": "[2]; 16 days", "result": "— (“—” refers to the peak area is less than 3000 or there is no peak)"},
      {"measurement": "RT* (min.) 22.8 (HPLC peak)", "setting": "[2]; 16 days", "result": 0.04, "unit": "%"},
      {"measurement": "RT* (min.) 23.6 (HPLC peak)", "setting": "[2]; 16 days", "result": 0.01, "unit": "%"},
      {"measurement": "RT* (min.) 26.96 (HPLC peak)", "setting": "[2]; 16 days", "result": "— (“—” refers to the peak area is less than 3000 or there is no peak)"},
      {"measurement": "RT* (min.) 27.5 (HPLC peak)", "setting": "[2]; 16 days", "result": 0.09, "unit": "%"},
      {"measurement": "RT* (min.) 28.81 (HPLC peak)", "setting": "[2]; 16 days", "result": "— (“—” refers to the peak area is less than 3000 or there is no peak)"},
      {"measurement": "RT* (min.) 30.66 (HPLC peak)", "setting": "[2]; 16 days", "result": "— (“—” refers to the peak area is less than 3000 or there is no peak)"}
    ]}
  ]
}
